ChEMBL document CHEMBL1201862, “PubChem BioAssay data set” (2004)
Activity calls are given as the source filed them.

Columns and labels:
CHO-K1 = experiment: (§1) Counterscreen for antagonists of the orexin 1 receptor (OX1R; HCRTR1): Homogeneous time resolved fluorescence (HTRF)-based cell-based dose response assay to identify antagonists of the parental CHO-K1 cell line. [Related pubchem assays (depositor defined):AID434989, AID435008, AID463079, AID485270, AID492963, AID492964, AID492965, AID493232, AID504699, AID504701]; format: functional; conditions: Cricetulus griseus
[1] = as §1, with “Fluorescence-based” for “Homogeneous time resolved fluorescence (HTRF)-based”, “cell-based high throughput” for “cell-based”, “CHO” for “CHO-K1”; format: functional
[2] = target: T1, Orexin/Hypocretin receptor type 1 (Homo sapiens, UniProt O43613); experiment: Homogeneous Time Resolved Fluorescence (HTRF)-based cell-based high throughput dose response assay for antagonists of the orexin 1 receptor (OX1R; HCRTR1). [Related pubchem assays (depositor defined):AID434989, AID435008, AID463079, AID485270, AID492963, AID492964, AID492965, AID493232, AID504717, AID504718]; format: functional
T1 sequence (O43613 whole entry): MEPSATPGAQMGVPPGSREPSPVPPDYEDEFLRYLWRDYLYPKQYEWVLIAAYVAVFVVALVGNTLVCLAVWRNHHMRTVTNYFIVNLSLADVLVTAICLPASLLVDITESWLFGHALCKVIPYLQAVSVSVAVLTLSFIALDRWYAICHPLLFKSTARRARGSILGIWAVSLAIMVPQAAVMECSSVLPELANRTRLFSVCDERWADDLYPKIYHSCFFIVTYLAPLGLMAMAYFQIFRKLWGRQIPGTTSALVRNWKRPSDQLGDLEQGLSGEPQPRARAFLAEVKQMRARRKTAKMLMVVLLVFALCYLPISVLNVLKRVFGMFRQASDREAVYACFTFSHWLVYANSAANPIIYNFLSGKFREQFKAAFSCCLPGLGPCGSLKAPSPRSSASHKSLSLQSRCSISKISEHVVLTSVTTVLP

[3] = target: T1, Orexin/Hypocretin receptor type 1; experiment: Fluorescence-based cell-based high throughput dose response assay for antagonists of the orexin 1 receptor (OX1R; HCRTR1). [Related pubchem assays (depositor defined):AID434989, AID435008, AID463079, AID485270, AID492963, AID492964, AID492965, AID493232, AID504717, AID504718]; format: functional
Orexin receptor type 2 [4] = target: T2, Orexin receptor type 2 (Homo sapiens, UniProt O43614); experiment: Counterscreen assay for antagonists of the orexin 1 receptor (OX1R; HCRTR1): Fluorescence-based cell-based dose response assay for antagonists of the orexin 2 receptor (OX2R; HCRTR2), run by assay provider.; format: functional
T2 sequence (O43614 whole entry): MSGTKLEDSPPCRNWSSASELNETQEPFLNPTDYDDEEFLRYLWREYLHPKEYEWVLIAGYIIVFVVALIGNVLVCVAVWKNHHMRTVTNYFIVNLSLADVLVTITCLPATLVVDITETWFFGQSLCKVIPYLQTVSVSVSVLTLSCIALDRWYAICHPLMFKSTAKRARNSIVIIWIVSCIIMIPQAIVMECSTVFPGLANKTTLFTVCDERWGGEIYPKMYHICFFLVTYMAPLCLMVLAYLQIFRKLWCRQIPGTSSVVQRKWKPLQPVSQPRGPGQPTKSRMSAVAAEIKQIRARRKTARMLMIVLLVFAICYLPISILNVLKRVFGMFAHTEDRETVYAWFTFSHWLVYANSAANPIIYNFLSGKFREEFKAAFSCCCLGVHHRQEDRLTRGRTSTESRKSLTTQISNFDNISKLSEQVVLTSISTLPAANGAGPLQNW

Orexin receptor type 2 [5] = target: T2, Orexin receptor type 2; experiment: Counterscreen assay for antagonists of the orexin 1 receptor (OX1R; HCRTR1): Homogeneous Time Resolved Fluorescence (HTRF)-based cell-based dose response assay for antagonists of the orexin 2 receptor (OX2R; HCRTR2), run by assay provider.; format: functional
[6] = microbe, parasite or virus in culture; format: functional; conditions: Mycobacterium tuberculosis
[7] = THP-1 cell cytotoxicity, dose response, cytotoxicity control for non-replicating M. tuberculosis project (AID 489025); format: functional
[8] = Vero E6 cell cytotoxicity, dose response, cytotoxicity control for non-replicating M. tuberculosis project, secondary assay (AID 492998); format: functional, VeroE6; conditions: Vero C1008
cells = format: functional
[9] = Shn3 3'UTR reporter inhibitors, dose response, cell-based, Clone20 osteoblasts, firefly luciferase, cherry-picked (AID 624132); format: functional;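 also: firefly luciferase luminescence from reporter carrying the Shn3 3'UTR in osteoblasts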
[10] = A Cell Based Secondary Assay to Explore Cytotoxicity in THP-1 Cells of Compounds that Modulate Mycobacterium tuberculosis in Media Containing Glycerol versus Media without Glycerol (2).; format: functional
[11] = Vero cell cytotoxicity, cytotoxicity control for M. tuberculosis inhibitor project, purified and synthesized samples, set 3 (AID 504684); format: functional
[12] = A Cell Based Secondary Assay to Explore Cytotoxicity in HepG2 Cells of Compounds that Modulate Mycobacterium tuberculosis in Media Containing Glycerol versus Media without Glycerol (2).; format: functional
[13] = control 3'UTR Renilla luciferase suppression, dose response, counter-screen for Shn3 inhibitor project, cell-based, Clone20-Shn3RL, cherry-picked (AID 624133); format: functional
Caspase-3 = target: T3, Caspase-3 (Homo sapiens, UniProt P42574); experiment: procaspase-3 activation potency of dual hits, dose response, counter-screen for dual procaspase-3/7 activator project, biochemical, absorbance, PC-3 D3A mutant (AID 504328)
T3 sequence (P42574 whole entry): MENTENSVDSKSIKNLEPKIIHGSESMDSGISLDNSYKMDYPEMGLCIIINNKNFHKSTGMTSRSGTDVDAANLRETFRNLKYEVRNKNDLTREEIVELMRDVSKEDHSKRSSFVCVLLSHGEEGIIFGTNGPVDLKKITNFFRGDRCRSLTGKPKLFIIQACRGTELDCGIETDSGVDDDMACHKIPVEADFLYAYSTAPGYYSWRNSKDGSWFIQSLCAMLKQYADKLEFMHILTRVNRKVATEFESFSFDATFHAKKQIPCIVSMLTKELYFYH

Caspase-7 = target: T4, Caspase-7 (Homo sapiens, UniProt P55210); experiment: procaspase-7 activators, dose response, dual procaspase-3/-7 activator project, biochemical, absorbance, human (AID 504330)
T4 sequence (P55210 whole entry): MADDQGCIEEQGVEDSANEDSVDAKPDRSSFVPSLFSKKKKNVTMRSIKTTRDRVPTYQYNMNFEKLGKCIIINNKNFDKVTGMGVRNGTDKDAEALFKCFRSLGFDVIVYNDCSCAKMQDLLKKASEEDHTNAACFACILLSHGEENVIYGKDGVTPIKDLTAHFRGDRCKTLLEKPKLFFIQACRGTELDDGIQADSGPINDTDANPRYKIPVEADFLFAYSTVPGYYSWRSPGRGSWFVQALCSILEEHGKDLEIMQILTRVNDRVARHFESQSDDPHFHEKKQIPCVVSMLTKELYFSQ

CHO = experiment: cytotoxicity in TLR9-MyD88 CHO cells, dose response, cytotoxicity control for TLR9-MyD88 binding inhibitor project, cell-based, luminescence (AID 588339); format: functional, hamster; conditions: Cricetulus griseus;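 also: CHO cells stably coexpressing TLR9 and MyD88 fusions from primary screen; compound exposure lasted 48 hours before viability readout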
Beta Lactamase = Beta Lactamase (Pseudomonas aeruginosa, UniProt Q932Y6); experiment: beta-lactamase reporter inhibitor potency, dose response, artefact control for TLR9-MyD88 binding inhibitor project, BLA reporter cells, FRET fluorescence (AID 588341); format: cell-based;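 also: cell based assay in CHO-K1 cells stably expressing beta-lactamase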
Chain of Beta Lactamase (Q932Y6 whole entry, canonical isoform): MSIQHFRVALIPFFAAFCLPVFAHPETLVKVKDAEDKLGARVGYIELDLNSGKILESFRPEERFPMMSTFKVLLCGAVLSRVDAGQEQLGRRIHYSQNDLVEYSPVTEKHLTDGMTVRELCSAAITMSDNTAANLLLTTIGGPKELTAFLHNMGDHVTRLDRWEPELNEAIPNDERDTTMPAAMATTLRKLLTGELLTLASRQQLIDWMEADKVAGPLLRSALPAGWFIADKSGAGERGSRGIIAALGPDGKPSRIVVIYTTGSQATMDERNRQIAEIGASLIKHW

[14] = target: Casein kinase I isoform alpha (Homo sapiens, UniProt P48729); format: functional
Chain of Casein kinase I isoform alpha (P48729 whole entry, canonical isoform): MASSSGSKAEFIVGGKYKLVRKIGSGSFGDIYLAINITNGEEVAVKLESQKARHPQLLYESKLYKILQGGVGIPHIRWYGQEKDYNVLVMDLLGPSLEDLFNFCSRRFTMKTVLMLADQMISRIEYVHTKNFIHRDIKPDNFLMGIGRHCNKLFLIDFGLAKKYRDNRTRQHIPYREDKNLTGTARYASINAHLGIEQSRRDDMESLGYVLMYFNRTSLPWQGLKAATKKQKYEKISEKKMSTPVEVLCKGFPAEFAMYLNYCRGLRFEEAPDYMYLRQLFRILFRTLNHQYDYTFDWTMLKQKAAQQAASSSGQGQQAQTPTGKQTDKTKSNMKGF

[15] = target: Serine/threonine-protein kinase TAO1 (Homo sapiens, UniProt Q7L7X3); format: functional
Chain of Serine/threonine-protein kinase TAO1 (Q7L7X3 whole entry): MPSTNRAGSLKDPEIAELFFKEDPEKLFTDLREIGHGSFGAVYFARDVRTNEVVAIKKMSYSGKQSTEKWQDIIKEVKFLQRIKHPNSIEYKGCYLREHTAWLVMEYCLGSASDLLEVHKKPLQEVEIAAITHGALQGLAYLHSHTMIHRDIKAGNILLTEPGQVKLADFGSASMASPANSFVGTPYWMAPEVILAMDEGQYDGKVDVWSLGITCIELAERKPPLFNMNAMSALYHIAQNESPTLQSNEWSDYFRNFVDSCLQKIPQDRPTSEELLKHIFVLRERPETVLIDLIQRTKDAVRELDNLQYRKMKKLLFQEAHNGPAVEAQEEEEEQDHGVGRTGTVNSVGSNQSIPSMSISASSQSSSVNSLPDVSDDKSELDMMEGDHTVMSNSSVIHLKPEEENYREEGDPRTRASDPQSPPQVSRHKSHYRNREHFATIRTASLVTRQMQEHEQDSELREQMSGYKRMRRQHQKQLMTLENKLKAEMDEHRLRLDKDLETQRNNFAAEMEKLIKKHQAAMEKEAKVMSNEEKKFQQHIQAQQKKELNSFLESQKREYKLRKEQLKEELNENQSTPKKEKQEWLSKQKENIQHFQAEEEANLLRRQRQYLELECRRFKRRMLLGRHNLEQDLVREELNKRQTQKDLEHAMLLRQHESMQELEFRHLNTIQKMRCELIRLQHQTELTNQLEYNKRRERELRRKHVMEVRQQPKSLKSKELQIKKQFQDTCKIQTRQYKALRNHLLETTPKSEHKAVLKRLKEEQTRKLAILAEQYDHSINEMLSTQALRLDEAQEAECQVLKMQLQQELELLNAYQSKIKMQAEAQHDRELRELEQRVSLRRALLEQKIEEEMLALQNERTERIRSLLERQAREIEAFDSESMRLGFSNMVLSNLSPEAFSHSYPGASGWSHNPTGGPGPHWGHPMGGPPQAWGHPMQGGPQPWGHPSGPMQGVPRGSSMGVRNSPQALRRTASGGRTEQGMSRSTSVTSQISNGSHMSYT

[16] = target: Cyclin-dependent kinase 5 (Homo sapiens, UniProt Q00535); format: functional;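 also: CDK5 measured as one member of a kinase profiling panel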
Chain of Cyclin-dependent kinase 5 (Q00535 whole entry): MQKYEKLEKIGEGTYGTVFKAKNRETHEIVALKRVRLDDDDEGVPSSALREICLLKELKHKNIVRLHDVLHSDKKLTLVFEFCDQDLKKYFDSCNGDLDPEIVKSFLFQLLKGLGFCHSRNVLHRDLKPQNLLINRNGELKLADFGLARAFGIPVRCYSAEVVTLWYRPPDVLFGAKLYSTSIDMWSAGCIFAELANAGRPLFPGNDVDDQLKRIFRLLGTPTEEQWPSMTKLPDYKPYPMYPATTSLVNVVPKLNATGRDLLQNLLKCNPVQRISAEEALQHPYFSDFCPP

[17] = target: Cyclin-dependent kinase 8 (Homo sapiens, UniProt P49336); experiment: Navigating the Kinome. Panel member name: CDK8; format: functional
[18] = target: Melanin-concentrating hormone receptor 1 (Homo sapiens, UniProt Q99705); experiment: Late-stage fluorescence-based counterscreen for antagonists of the G-protein coupled receptor 7 (GPR7): cell-based dose response assay to identify antagonists of the melanin-concentrating hormone receptor 1 (MCHR1) Set 6.; format: functional
Chain of Melanin-concentrating hormone receptor 1 (Q99705 whole entry): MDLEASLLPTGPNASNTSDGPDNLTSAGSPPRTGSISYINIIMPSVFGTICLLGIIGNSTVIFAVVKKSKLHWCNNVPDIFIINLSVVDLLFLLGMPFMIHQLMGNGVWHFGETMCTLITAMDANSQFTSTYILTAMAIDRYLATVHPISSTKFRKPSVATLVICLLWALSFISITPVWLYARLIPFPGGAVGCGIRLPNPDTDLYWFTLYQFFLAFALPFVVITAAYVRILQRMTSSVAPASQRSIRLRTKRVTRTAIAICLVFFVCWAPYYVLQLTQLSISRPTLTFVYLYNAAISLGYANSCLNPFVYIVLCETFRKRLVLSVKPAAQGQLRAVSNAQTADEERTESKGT

[19] = target: Neuropeptides B/W receptor type 1 (Homo sapiens, UniProt P48145); experiment: GPR7 antagonist potency, late-stage follow-up, cell-based, fluorescence, dose response, set 6 (AID 588583); format: functional
[20] = target: DNA dC->dU-editing enzyme APOBEC-3G (Homo sapiens, UniProt Q9HC16); experiment: APOBEC3G deaminase inhibitors, SAR follow-up, biochemical, fluorescence, single-stranded DNA substrate (AID 602136); format: functional; conditions: read-out: IC50_Mean
Chain of DNA dC->dU-editing enzyme APOBEC-3G (Q9HC16 whole entry): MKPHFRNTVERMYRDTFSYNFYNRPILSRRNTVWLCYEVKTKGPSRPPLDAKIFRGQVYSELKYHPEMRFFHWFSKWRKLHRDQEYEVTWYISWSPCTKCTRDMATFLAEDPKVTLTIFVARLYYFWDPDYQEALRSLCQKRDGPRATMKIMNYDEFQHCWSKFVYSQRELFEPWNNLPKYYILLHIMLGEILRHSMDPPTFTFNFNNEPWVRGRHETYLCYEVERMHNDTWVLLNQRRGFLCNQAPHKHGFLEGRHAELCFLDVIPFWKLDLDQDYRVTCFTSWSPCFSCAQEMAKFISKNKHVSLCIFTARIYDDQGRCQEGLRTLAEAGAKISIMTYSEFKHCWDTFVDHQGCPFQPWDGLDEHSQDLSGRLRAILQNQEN

[21] = target: DNA dC->dU-editing enzyme APOBEC-3A (Homo sapiens, UniProt P31941); experiment: SAR analysis of small molecule inhibitors of APOBEC3A DNA Deaminase via a fluorescence-based single-stranded DNA deaminase assay.; format: functional; conditions: read-out: IC50_Mean
Chain of DNA dC->dU-editing enzyme APOBEC-3A (P31941 whole entry): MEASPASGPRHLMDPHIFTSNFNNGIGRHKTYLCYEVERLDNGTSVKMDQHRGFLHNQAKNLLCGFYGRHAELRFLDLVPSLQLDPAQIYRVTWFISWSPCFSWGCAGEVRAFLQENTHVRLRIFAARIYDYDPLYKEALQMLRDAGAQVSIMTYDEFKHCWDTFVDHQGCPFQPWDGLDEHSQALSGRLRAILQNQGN

[22] = target: Cell division cycle 7-related protein kinase (Homo sapiens, UniProt O00311); format: functional;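 also: value obtained from a kinome-wide kinase panel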
Chain of Cell division cycle 7-related protein kinase (O00311 whole entry): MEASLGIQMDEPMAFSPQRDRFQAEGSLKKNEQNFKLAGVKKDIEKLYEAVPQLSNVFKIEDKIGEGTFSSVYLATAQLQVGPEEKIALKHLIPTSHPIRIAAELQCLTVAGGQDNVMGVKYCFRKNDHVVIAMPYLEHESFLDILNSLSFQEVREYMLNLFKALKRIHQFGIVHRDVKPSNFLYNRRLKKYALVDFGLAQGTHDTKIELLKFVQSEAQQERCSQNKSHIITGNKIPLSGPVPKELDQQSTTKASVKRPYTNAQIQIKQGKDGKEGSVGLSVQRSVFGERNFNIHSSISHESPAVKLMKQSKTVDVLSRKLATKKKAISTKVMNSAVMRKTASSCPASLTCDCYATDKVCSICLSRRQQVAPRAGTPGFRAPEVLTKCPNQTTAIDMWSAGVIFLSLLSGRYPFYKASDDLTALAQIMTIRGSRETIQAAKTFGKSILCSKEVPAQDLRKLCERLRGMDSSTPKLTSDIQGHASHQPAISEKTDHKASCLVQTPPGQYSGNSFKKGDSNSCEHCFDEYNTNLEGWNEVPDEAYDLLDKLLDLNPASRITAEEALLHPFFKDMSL

[23] = target: Cyclin-dependent kinase 19 (Homo sapiens, UniProt Q9BWU1); experiment: Navigating the Kinome. Panel member name: CDC2L6; format: functional
Insulin-degrading enzyme [24] = target: T5, Insulin-degrading enzyme (Homo sapiens, UniProt P14735); experiment: activators of recombinant IDE enzyme, dose response, counter-screen for IDE activator project, biochemical, fluorescence polarization (AID 588681)
T5 sequence (P14735 whole entry): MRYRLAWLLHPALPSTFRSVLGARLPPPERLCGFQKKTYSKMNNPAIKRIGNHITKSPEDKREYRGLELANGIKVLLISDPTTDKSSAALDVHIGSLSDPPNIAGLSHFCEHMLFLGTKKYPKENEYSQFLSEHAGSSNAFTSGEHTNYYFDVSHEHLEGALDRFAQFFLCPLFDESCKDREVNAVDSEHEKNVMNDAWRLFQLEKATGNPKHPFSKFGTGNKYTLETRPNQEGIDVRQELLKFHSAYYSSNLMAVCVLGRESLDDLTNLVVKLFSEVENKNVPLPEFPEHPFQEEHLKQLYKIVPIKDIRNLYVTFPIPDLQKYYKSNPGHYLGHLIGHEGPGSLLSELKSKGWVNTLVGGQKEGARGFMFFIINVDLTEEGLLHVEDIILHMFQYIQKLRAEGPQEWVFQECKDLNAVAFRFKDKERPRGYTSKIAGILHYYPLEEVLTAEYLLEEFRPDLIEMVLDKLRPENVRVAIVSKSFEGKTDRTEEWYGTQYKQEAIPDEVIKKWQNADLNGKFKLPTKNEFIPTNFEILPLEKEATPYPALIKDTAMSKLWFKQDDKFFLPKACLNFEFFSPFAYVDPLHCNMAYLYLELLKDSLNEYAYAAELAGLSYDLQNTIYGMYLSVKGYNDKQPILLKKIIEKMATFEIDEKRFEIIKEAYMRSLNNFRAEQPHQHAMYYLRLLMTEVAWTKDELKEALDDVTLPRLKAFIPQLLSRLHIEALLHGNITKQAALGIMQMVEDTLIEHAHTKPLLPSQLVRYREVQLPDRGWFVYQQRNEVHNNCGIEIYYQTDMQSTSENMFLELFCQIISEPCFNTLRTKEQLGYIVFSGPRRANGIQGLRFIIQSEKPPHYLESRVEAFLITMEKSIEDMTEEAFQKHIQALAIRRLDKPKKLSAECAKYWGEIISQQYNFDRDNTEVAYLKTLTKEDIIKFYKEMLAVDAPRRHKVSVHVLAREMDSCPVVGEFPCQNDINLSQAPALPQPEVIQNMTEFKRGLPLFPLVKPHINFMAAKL

Insulin-degrading enzyme [25] = target: T5, Insulin-degrading enzyme; experiment: activators of endogenous IDE in HEK cells, dose response, cell-based, fluorescence polarization (AID 588439); format: functional
HEK293 [26] = experiment: HEK cell cytotoxicity by LDH release, dose response, cytotoxicity control for IDE activator project, fluorescence, HEK cells (AID 588440); format: functional, cell-based; conditions: Homo sapiens;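 also: cytotoxicity by LDH release measuring loss of membrane integrity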
HEK293 [27] = experiment: optical interference in Abeta FP readout, dose response, artefact control for IDE activator project, biochemical, fluorescence polarization (AID 588442); format: functional, cell-based; conditions: Homo sapiens

Question: Which results are given for `CSc1cccc(NC(=O)C2CCCN2S(=O)(=O)c2ccc(Br)s2)c1` (stereo not drawn)?
Answer: IC50 (CHO-K1): > 66.2 µM (inactive); IC50 [1]: 27.8 µM (inactive); IC50 [2]: 93.3 nM (active); IC50 [3]: 800 nM (active); IC50 (Orexin receptor type 2 [4]): 400 nM (active); IC50 (Orexin receptor type 2 [5]): 340 nM (active)

Question: With `Cc1ccc2c(c1)/C(=C1\C(=O)Nc3ccccc31)C(=O)N2C` as the compound, how does the CC50 [6] read?
Answer: Its CC50 is 16.3 µM (active).

Question: And the CC50 [7]?
Answer: Its CC50 is 27 µM (active).

Question: And the CC50 [8]?
Answer: Its CC50 is 4.76 µM (active).

Question: And the IC50 (cells)?
Answer: Its IC50 is 1.89 µM (active).

Question: What about the AC50 [9] of the same compound?
Answer: Its AC50 is 8.85 µM (active).

Question: What about the CC50 [10] of the same compound?
Answer: Its CC50 is 13.4 µM (active).

Question: What about the CC50 [11] of the same compound?
Answer: The CC50 was 4.55 µM (active).

Question: What about the CC50 [12] of the same compound?
Answer: Its CC50 is 12.9 µM (active).

Question: And the AC50 [13]?
Answer: The AC50 was 12.1 µM (active).

Question: What does the source list for `COc1ccccc1N1C(=O)C2C(C(=O)c3ccccc3)=NN(c3ccccc3)C2C1=O` (stereo not drawn)?
Answer: EC50 (Caspase-3): > 85.3 µM (inactive); EC50 (Caspase-7): > 85.3 µM (inactive); IC50 (CHO): > 49.8 µM (inactive); IC50 (Beta Lactamase): 9.37 µM (active)

Question: With `CC(C)(C)c1cc(NC(=O)C(=O)c2cccc3ccccc23)n(-c2ccc(OCCC(N)=O)cc2)n1` as the compound, how does the Ki [14] read?
Answer: The Ki was 3.98 µM (active).

Question: And the Ki [15]?
Answer: Its Ki is > 6.31 µM (inactive).

Question: What about the Ki [16] of the same compound?
Answer: The Ki was 1.58 µM (active).

Question: What about the Ki [17] of the same compound?
Answer: The Ki was 2 µM (active).

Question: Which results are given for `CC(C)(C)OC(=O)C(C#N)c1c(Cl)cnn(Cc2cccc3ccccc23)c1=O` (stereo not drawn)?
Answer: IC50 [18]: 682 nM (active); IC50 [19]: 682 nM (active)

Question: For `COc1cc2c(c3oc(=O)c4c(c13)CCC4)C=CC(C)(C)O2`, which IC50 [20] is on record?
Answer: Its IC50 is > 99 µM (inactive).

Question: And the IC50 [21]?
Answer: Its IC50 is > 99 µM (inactive).

Question: What does the source list for `O=C(O)c1ccccc1Nc1ccnc(NCc2ccccc2)n1`?
Answer: Ki [22]: 50.1 nM (active); Ki [23]: > 100 µM (inactive)

Question: Which EC50 (Insulin-degrading enzyme [24]) does the source give for `Cc1ccc(S(=O)(=O)/N=C/c2cc(Br)ccc2O)cc1` here?
Answer: The EC50 was > 54.7 µM (inactive).

Question: What about the EC50 (Insulin-degrading enzyme [25]) of the same compound?
Answer: The EC50 was > 54.7 µM (inactive).

Question: What about the IC50 (HEK293 [26]) of the same compound?
Answer: Its IC50 is > 89.1 µM (inactive).

Question: And the EC50 (HEK293 [27])?
Answer: The EC50 was > 54.7 µM (inactive).
